This is an account of results in patent US4122179A, “Acid addition salts of vincamine and apovincamine” (priority 1976, dated 1978).

System in the first data set: not listed separately
Description: LD50 / acute toxicity, intraperitoneal route. The data set is classed as in vivo. To be noted: i.p.
As for `CC[C@@]12C=C(C(=O)OC)n3c4c(c5ccccc53)CCN(CCC1)[C@H]42` [Example 6.b, Apovincamine 2,5-dihydroxybenzoate], the LD50 (as a rule, the dose expected to kill half of the subjects tested) is 750 mg/kg.
`CC[C@@]12C=C(C(=O)OC)n3c4c(c5ccccc53)CCN(CCC1)[C@H]42` [Example 8.b, Apovincamine p-toluensulfonate] had an LD50 of 900 mg/kg.
For `CC[C@]12CCCN3CCc4c(n(c5ccccc45)[C@@](O)(C(=O)OC)C1)[C@@H]32` [Example 22.a, Vincamine caprate], the LD50 amounted to 2000 mg/kg.
The compound `CC[C@@]12C=C(C(=O)OC)n3c4c(c5ccccc53)CCN(CCC1)[C@H]42` [Example 10.b, Apovincamine pivalate] yielded an LD50 of 750 mg/kg.
Still for that read-out and setting: the same measure for `CC[C@@]12C=C(C(=O)OC)n3c4c(c5ccccc53)CCN(CCC1)[C@H]42` [Example 19.b, Apovincamine p-chlorophenoxyacetate]: 750 mg/kg.
In turn, `CC[C@]12CCCN3CCc4c(n(c5ccccc45)[C@@](O)(C(=O)OC)C1)[C@@H]32` [Example 2.a, Vincamine 2,4-dihydroxy-benzoate] had an LD50 of 750 mg/kg.
For `CC[C@]12CCCN3CCc4c(n(c5ccccc45)[C@@](O)(C(=O)OC)C1)[C@@H]32` [Example 8.a, Vincamine p-toluensulfonate], the LD50 amounted to 1250 mg/kg.
Apovincamine alginate [Example 23.b] yielded an LD50 of 750 mg/kg.
Turning to `CC[C@@]12C=C(C(=O)OC)n3c4c(c5ccccc53)CCN(CCC1)[C@H]42` [Example 29.b, Apovincamine dihydroxyphenylalanine], the LD50 worked out at 900 mg/kg.

Staying with this data set, now noted: i.p.; Gleason class in words, classes not defined.
Consider `CC[C@@]12C=C(C(=O)OC)n3c4c(c5ccccc53)CCN(CCC1)[C@H]42` [Example 6.b, Apovincamine 2,5-dihydroxybenzoate], for which the “Toxicity (Gleason)” value is on record as “modest”.
Consider `CC[C@@]12C=C(C(=O)OC)n3c4c(c5ccccc53)CCN(CCC1)[C@H]42` [Example 8.b, Apovincamine p-toluensulfonate], for which the “Toxicity (Gleason)” value is recorded as “modest”.
As for `CC[C@]12CCCN3CCc4c(n(c5ccccc45)[C@@](O)(C(=O)OC)C1)[C@@H]32` [Example 22.a, Vincamine caprate], the “Toxicity (Gleason)” value was “negligible”.
Consider `CC[C@@]12C=C(C(=O)OC)n3c4c(c5ccccc53)CCN(CCC1)[C@H]42` [Example 10.b, Apovincamine pivalate], for which the “Toxicity (Gleason)” value was “modest”.
Same read-out and setting: the same measure for `CC[C@@]12C=C(C(=O)OC)n3c4c(c5ccccc53)CCN(CCC1)[C@H]42` [Example 19.b, Apovincamine p-chlorophenoxyacetate]: “modest”; for `CC[C@]12CCCN3CCc4c(n(c5ccccc45)[C@@](O)(C(=O)OC)C1)[C@@H]32` [Example 2.a, Vincamine 2,4-dihydroxy-benzoate]: “modest”.
Regarding `CC[C@]12CCCN3CCc4c(n(c5ccccc45)[C@@](O)(C(=O)OC)C1)[C@@H]32` [Example 8.a, Vincamine p-toluensulfonate], the “Toxicity (Gleason)” value was “light”.
As for Apovincamine alginate [Example 23.b], the “Toxicity (Gleason)” value is on record as “modest”.
Same read-out and setting: the same measure for `CC[C@@]12C=C(C(=O)OC)n3c4c(c5ccccc53)CCN(CCC1)[C@H]42` [Example 29.b, Apovincamine dihydroxyphenylalanine]: “light”.

System in another data set: not listed separately
Description: Hematic levels at different times after oral administration (absorption). The data set is classed as in vivo, Wistar rat. To be noted: 100 mg/kg expressed as vincamine/apovincamine, 5% carboxymethyl cellulose suspension. The protocol:
(§1) For the compounds of the present invention a number of pharmacological and pharmacokinetic tests have been carried out. […] As regards the pharmacological and pharmacodynamic activity, it has been studied on the percent variations of the hematic flow, as recorded at the vertebral arteria in the dog after administration of the tested compounds. As regards the pharmacokinetic tests, the compounds were administered per oral route to the Wistar rat, and the hematic levels at different times from the administration were measured.
For the evaluation of the absorption, all the compounds have been orally administered at the dosage of 100 mg/kg, expressed as vincamine and apovincamine, in form of a suspension in a 5% carboxymethyl cellulose solution.
The absorption was determined by evaulating the hematic levels at the following times (minutes) : 0, 30, 120, 240, 480, 10 hours and 12 hours, in order also to assess the time from the administration (max conc.time) the maximum absorption occurred.
The vincamine and apovincamine concentrations were assessed by chromatographic method.
For the evaluation of the prolonged action of the salts and of the adducts of vincamine and apovincamine the following criterium was adopted; as derivatives having a long-acting effect, there are considered those which, 120 minutes after the administration, show hematic levels higher than those obtained with vincamine and apovincamine.
Apovincamine alginate [Example 23.b] yielded a Max. conc. time of 60 min.

Staying with this data set, now noted: 100 mg/kg expressed as vincamine/apovincamine, 5% carboxymethyl cellulose suspension, 100 mg/kg.
For the compound `CC[C@@]12C=C(C(=O)OC)n3c4c(c5ccccc53)CCN(CCC1)[C@H]42` [Example 6.b, Apovincamine 2,5-dihydroxybenzoate], the Max. conc. time amounted to 240 min.
Consider `CC[C@@]12C=C(C(=O)OC)n3c4c(c5ccccc53)CCN(CCC1)[C@H]42` [Example 8.b, Apovincamine p-toluensulfonate], for which the Max. conc. time was determined as 480 min.
Turning to `CC[C@]12CCCN3CCc4c(n(c5ccccc45)[C@@](O)(C(=O)OC)C1)[C@@H]32` [Example 22.a, Vincamine caprate], the Max. conc. time stood at 120 min.
On the same count and under the same terms, the result for `CC[C@@]12C=C(C(=O)OC)n3c4c(c5ccccc53)CCN(CCC1)[C@H]42` [Example 10.b, Apovincamine pivalate] reads 480 min; that for `CC[C@@]12C=C(C(=O)OC)n3c4c(c5ccccc53)CCN(CCC1)[C@H]42` [Example 19.b, Apovincamine p-chlorophenoxyacetate], 480 min; that for `CC[C@]12CCCN3CCc4c(n(c5ccccc45)[C@@](O)(C(=O)OC)C1)[C@@H]32` [Example 2.a, Vincamine 2,4-dihydroxy-benzoate], 120 min.
Regarding `CC[C@]12CCCN3CCc4c(n(c5ccccc45)[C@@](O)(C(=O)OC)C1)[C@@H]32` [Example 8.a, Vincamine p-toluensulfonate], the Max. conc. time turned out to be 480 min.
Compound `CC[C@@]12C=C(C(=O)OC)n3c4c(c5ccccc53)CCN(CCC1)[C@H]42` [Example 29.b, Apovincamine dihydroxyphenylalanine] registered a Max. conc. time of 120 min.

Another data set has as its system vertebral arteria. Description: Cerebral vasodilating activity: hematic flow at the vertebral arteria after i.v. administration. The following applies: i.v. (femoral vein), 5 mg/kg of vincamine/apovincamine, anesthetized dog, 4 animals per compound. Format: in vivo. The protocol: as §1
The cerebral vasodilating activity was studied in the anestetized dog, by measuring, by means of Statham periarterial electromagnetic flowmeters, the hematic flow at the level of the […] which, in such animal species, constitutes the greatest blood supply to the brain.
The resuls are reported in the TABLE 2 (last column) as the percent variations of the flow measured at the level of the ledt vertebral arteria after the i.v. administration of the several compounds to be tested to groups of 4 animals for each compound. The results also confirm that the compounds of the invention are all endowed with a vasodilating activity at the level of the cerebral circulus, such an action being, for some compounds, much more remarkable than that of vincamine and apovincamine.
For Apovincamine alginate [Example 23.b], the “% increase (percent variation of hematic flow, left vertebral arteria)” value amounted to 38.0%.

Staying with this data set, now noted: i.v. (femoral vein), 5 mg/kg of vincamine/apovincamine, anesthetized dog, 4 animals per compound; 5 mg/kg.
As to `CC[C@@]12C=C(C(=O)OC)n3c4c(c5ccccc53)CCN(CCC1)[C@H]42` [Example 6.b, Apovincamine 2,5-dihydroxybenzoate], the “% increase (percent variation of hematic flow, left vertebral arteria)” value is reported as 30.9%.
On to `CC[C@@]12C=C(C(=O)OC)n3c4c(c5ccccc53)CCN(CCC1)[C@H]42` [Example 8.b, Apovincamine p-toluensulfonate], for which the “% increase (percent variation of hematic flow, left vertebral arteria)” value is 29.0%.
Still for that read-out and setting: the result for `CC[C@]12CCCN3CCc4c(n(c5ccccc45)[C@@](O)(C(=O)OC)C1)[C@@H]32` [Example 22.a, Vincamine caprate] reads 23.9%; that for `CC[C@@]12C=C(C(=O)OC)n3c4c(c5ccccc53)CCN(CCC1)[C@H]42` [Example 10.b, Apovincamine pivalate], 31.4%; that for `CC[C@@]12C=C(C(=O)OC)n3c4c(c5ccccc53)CCN(CCC1)[C@H]42` [Example 19.b, Apovincamine p-chlorophenoxyacetate], 28.4%.
On to `CC[C@]12CCCN3CCc4c(n(c5ccccc45)[C@@](O)(C(=O)OC)C1)[C@@H]32` [Example 2.a, Vincamine 2,4-dihydroxy-benzoate], for which the “% increase (percent variation of hematic flow, left vertebral arteria)” value is on record as 24.8%.
In the case of `CC[C@]12CCCN3CCc4c(n(c5ccccc45)[C@@](O)(C(=O)OC)C1)[C@@H]32` [Example 8.a, Vincamine p-toluensulfonate], the “% increase (percent variation of hematic flow, left vertebral arteria)” value came out at 25.1%.
Take `CC[C@@]12C=C(C(=O)OC)n3c4c(c5ccccc53)CCN(CCC1)[C@H]42` [Example 29.b, Apovincamine dihydroxyphenylalanine]: the “% increase (percent variation of hematic flow, left vertebral arteria)” value came out at 41.3%.

System in another data set: not listed separately
Description: Solubility. Format: physicochemical. To be noted: alcohol (ethyl alcohol); qualitative.
For `CC[C@@]12C=C(C(=O)OC)n3c4c(c5ccccc53)CCN(CCC1)[C@H]42` [Example 6.b, Apovincamine 2,5-dihydroxybenzoate], the solubility in alcohol entry is “insoluble”.
In the case of `CC[C@@]12C=C(C(=O)OC)n3c4c(c5ccccc53)CCN(CCC1)[C@H]42` [Example 8.b, Apovincamine p-toluensulfonate], the solubility in alcohol result was “soluble”.
For `CC[C@@]12C=C(C(=O)OC)n3c4c(c5ccccc53)CCN(CCC1)[C@H]42` [Example 10.b, Apovincamine pivalate], the solubility in alcohol result is “soluble”.
Regarding `CC[C@]12CCCN3CCc4c(n(c5ccccc45)[C@@](O)(C(=O)OC)C1)[C@@H]32` [Example 2.a, Vincamine 2,4-dihydroxy-benzoate], the solubility in alcohol entry is given as “soluble”.
As to `CC[C@]12CCCN3CCc4c(n(c5ccccc45)[C@@](O)(C(=O)OC)C1)[C@@H]32` [Example 8.a, Vincamine p-toluensulfonate], the solubility in alcohol entry is listed as “soluble”.
Consider Apovincamine alginate [Example 23.b], for which the solubility in alcohol result is “insoluble”.

Still in this data set, the particulars now being: common organic solvents; qualitative.
Consider `CC[C@]12CCCN3CCc4c(n(c5ccccc45)[C@@](O)(C(=O)OC)C1)[C@@H]32` [Example 22.a, Vincamine caprate], for which the “solubility in the common (organic) solvents” value is reported as “insoluble”.

The same data set, now with this note: qualitative, solvent not stated.
With `CC[C@@]12C=C(C(=O)OC)n3c4c(c5ccccc53)CCN(CCC1)[C@H]42` [Example 29.b, Apovincamine dihydroxyphenylalanine], the “solubility (solvent not given)” value is “insoluble”.

The data set is the same for the next values; noted with them: water; qualitative.
Turning to `CC[C@@]12C=C(C(=O)OC)n3c4c(c5ccccc53)CCN(CCC1)[C@H]42` [Example 6.b, Apovincamine 2,5-dihydroxybenzoate], the solubility in water entry is listed as “insoluble”.
Turning to `CC[C@@]12C=C(C(=O)OC)n3c4c(c5ccccc53)CCN(CCC1)[C@H]42` [Example 8.b, Apovincamine p-toluensulfonate], the solubility in water result is “insoluble”.
Consider `CC[C@]12CCCN3CCc4c(n(c5ccccc45)[C@@](O)(C(=O)OC)C1)[C@@H]32` [Example 22.a, Vincamine caprate], for which the solubility in water result was “insoluble”.
On the same count and under the same terms, the same measure for `CC[C@@]12C=C(C(=O)OC)n3c4c(c5ccccc53)CCN(CCC1)[C@H]42` [Example 10.b, Apovincamine pivalate]: “insoluble”; for `CC[C@@]12C=C(C(=O)OC)n3c4c(c5ccccc53)CCN(CCC1)[C@H]42` [Example 19.b, Apovincamine p-chlorophenoxyacetate]: “insoluble”; for `CC[C@]12CCCN3CCc4c(n(c5ccccc45)[C@@](O)(C(=O)OC)C1)[C@@H]32` [Example 8.a, Vincamine p-toluensulfonate]: “soluble”.
As for Apovincamine alginate [Example 23.b], the solubility in water entry is on record as “insoluble”.
